Data reported in patent US7786107B2, “Modulators of muscarinic receptors” (Vertex Pharmaceuticals Incorporated, priority 2006, dated 2010).

Assays:
M1 muscarinic receptor = target: T1, M1 muscarinic receptor (Homo sapiens, UniProt P11229); assay: Functional mobilization of intracellular calcium (FLIPR) in CHO cells expressing M1; type: cell-based; settings: for EC50: CHO cells expressing M1, calcium mobilization; for Emax: CHO, 100% efficacy is the maximum response obtained with the Carbachol control
T1 construct: expressed in transfected cells; host or cells: CHO
T1 sequence (P11229 1-460): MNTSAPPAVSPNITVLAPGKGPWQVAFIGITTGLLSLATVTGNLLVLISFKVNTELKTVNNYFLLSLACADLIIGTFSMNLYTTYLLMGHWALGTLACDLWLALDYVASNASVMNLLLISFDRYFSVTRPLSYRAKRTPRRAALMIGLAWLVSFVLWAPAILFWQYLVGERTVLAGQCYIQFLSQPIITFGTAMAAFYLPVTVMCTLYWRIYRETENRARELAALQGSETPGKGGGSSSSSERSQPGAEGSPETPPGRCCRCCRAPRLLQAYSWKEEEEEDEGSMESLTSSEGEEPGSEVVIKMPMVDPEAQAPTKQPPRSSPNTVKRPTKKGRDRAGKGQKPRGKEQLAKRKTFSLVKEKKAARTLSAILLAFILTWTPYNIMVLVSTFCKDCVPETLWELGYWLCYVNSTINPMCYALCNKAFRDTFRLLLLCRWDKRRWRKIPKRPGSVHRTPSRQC
Description: (§1) Functional Mobilization of Intracellular Calcium to Determine Muscarinic Receptor Activity:
(§2) CHO cells expressing muscarinic receptors (M1 to M5) are grown as monolayers in tissue culture flasks at 37° C. in a humidified atmosphere containing 5% CO2 and passaged every 3-5 days. The growth media is Dulbecco's modified eagles medium (DMEM, Gibco Cat#12430-054), containing 25 mM Hepes and supplemented with Fetal Bovine Serum (Hyclone, Cat#SH30071.03), 0.1 mM of MEM non-essential amino acids (GIBCO, Cat#11140-050), 1 mM MEM Sodium Pyruvate (GIBCO Cat#11360-070) and 100 units/ml of Penicillin G and 100 μg/ml of Streptomycin (GIBCO Cat#15140-122). The recombinant muscarinic receptor cell lines are grown under antibiotic pressure with media containing 25 μg/ml zeocin and 500 μg/ml G418 (MI-CHO), 4 μg/ml puromycin, 50 μg/ml zeocin and 2.5 μg/ml blasticidin (M2 and M4-CHO) or 50 μg/ml zeocin and 4 μg/ml puromycin (M3 and M5-CHO).
(§3) Cells are harvested at 80-90% confluence using Versene (GIBCO Cat#15040-066), collected by centrifugation and seeded 18-24 hours prior to running the calcium assay at a density of 5,000-10,000 cells/well in […], clear-bottomed 384-well plates (BD Biocoat, poly-D-lysine, Cat#356663). The day of the experiment, the cells are washed with a plate washer (Bioteck Instruments, ELX 405) using bath 1 buffer (140-mM NaCl, 4.5-mM KCl, 2-mM CaCl2, 1-mM MgCl2, 10-mM Hepes-Na, 10-mM Glucose, pH 7.4, with NaOH) containing 1 mM Probenecid. Next, the calcium dye Fluo-3 (25 μl well of Fluo-3 AM at 4 μM, Molecular Probes F-1241, in Bath 1 buffer containing 1 mM Probenecid) is added to the 25 μl of Bath 1 remaining in each well after the plate wash and the dye is loaded at 37° C. in the tissue culture incubator for 60-90 min. The fluorescent dye is removed using the plate washer with Bath 1 containing 1 mM Probenecid, leaving 25 μl/well of this solution after the wash. Alternatively, cells can be loaded with the calcium indicator from Molecular Devices (Calcium 3 Assay Reagents, Cat #R7181) adding 5 μl of a 5× solution dye in Bath 1 containing 1 mM Probenecid (10 ml per dye flask cat#R7182 to generate a solution 20×) to 20 μl of the same buffer. After loading for 60 min, the experiment can be run without having to remove the dye.
(§4) Compounds are prepared at a 2× fold concentration in a 96-well plate (round bottom, Costar Corning cat#3656), by reconstituting the pre-spotted compounds in bath 1 containing 1 mM probenecid. The final concentration DMSO is 0.5%, and the amount of DMSO is normalized across the assay plate. To determine an agonist action of the compounds on muscarinic receptors, the reconstituted compounds are added (25 μl compound/well) to the cell assay plate (containing 25 μl/well) using the multi-channel robotic system of the FLIPR 3 Instrument (Molecular Devices, Sunnyvale, Calif.). To determine a functional inhibitory action of the compounds on muscarinic receptors, the reconstituted compounds are added (25 μl compound/well) to the assay plate and pre-incubated for 15 min prior to adding 25 μl of Carbachol at 3× the EC80 for each muscarinic subtype. Alternatively, the compounds can be co-applied simultaneously with the agonist. In both assay modes, the fluorescence is recorded for 60 sec (excitation wavelength is […] and emission wavelength 540 nm) using the FLIPR 3 instrument.
(§5) The potency, efficacy and selectivity of the muscarinic compounds were evaluated by screening the compound activity across the whole family (M1 to M5 cells). Compounds were also screened for activity on other proteins such as other GPCRs and ion channels to determine selectivity on M4 receptors.
(§6) Examples of activities and efficacies of the muscarinic compounds of formulae (I, I-A, and I-B) on modulating M1 and M4 receptors are shown below in Table 4. […]

M4 muscarinic receptor = target: T2, M4 muscarinic receptor (Homo sapiens, UniProt P08173); assay: Functional mobilization of intracellular calcium (FLIPR) in CHO cells expressing M4; type: cell-based; settings: for EC50: CHO cells expressing M4, calcium mobilization; for Emax: CHO, 100% efficacy is the maximum response obtained with the Carbachol control
T2 construct: expressed in transfected cells; host or cells: CHO
T2 sequence (P08173 1-479): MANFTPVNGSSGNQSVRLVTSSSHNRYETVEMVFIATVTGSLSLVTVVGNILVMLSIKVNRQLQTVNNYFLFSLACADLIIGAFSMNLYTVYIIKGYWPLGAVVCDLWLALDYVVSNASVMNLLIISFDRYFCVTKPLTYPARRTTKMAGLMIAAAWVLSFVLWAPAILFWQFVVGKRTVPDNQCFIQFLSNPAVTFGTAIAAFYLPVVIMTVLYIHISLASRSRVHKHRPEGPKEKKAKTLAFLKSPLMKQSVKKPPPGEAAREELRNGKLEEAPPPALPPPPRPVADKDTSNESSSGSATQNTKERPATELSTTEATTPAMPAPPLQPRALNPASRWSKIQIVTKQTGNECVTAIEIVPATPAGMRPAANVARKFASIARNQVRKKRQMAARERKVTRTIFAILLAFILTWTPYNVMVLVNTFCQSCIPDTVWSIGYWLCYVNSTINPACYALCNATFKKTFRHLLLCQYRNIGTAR
Description: as §1, §2, §3, §4, §5, §6

Structure (SMILES): CCOC(=O)N1C2CCC1CC(N1CCC3(CCC(=O)N(C)c4ccccc43)CC1)C2 (stereo not shown) [Compound 30]
- EC50 (M1 muscarinic receptor): < 2 µM
- Emax (M1 muscarinic receptor): 25 to 100%
- EC50 (M4 muscarinic receptor): < 2 µM
- Emax (M4 muscarinic receptor): 25 to 100%

Structure (SMILES): CN(C)C(=O)N1CCCC2(CCN(CCC(C)(C)C)CC2)c2ccccc21 [Compound 31]
- EC50 (M1 muscarinic receptor): > 10 µM
- Emax (M1 muscarinic receptor): < 25%
- EC50 (M4 muscarinic receptor): < 2 µM
- Emax (M4 muscarinic receptor): 25 to 100%

Structure (SMILES): CC(=O)N1CCCC2(CCN(CCC(C)(C)C)CC2)c2ccccc21 [Compound 32]
- EC50 (M1 muscarinic receptor): 2 to 10 µM
- Emax (M1 muscarinic receptor): < 25%
- EC50 (M4 muscarinic receptor): < 2 µM
- Emax (M4 muscarinic receptor): 25 to 100%

Structure (SMILES): CN(C)C(=O)N1CCCC2(CCN(C3C[C@@H]4CC[C@@H]3C4)CC2)c2ccccc21 (stereo partly shown) [Compound 33]
- EC50 (M1 muscarinic receptor): > 10 µM
- Emax (M1 muscarinic receptor): < 25%
- EC50 (M4 muscarinic receptor): > 10 µM
- Emax (M4 muscarinic receptor): < 25%

Structure (SMILES): CC(=O)N1CCCC2(CCN(CCC(C)C)CC2)c2ccccc21 [Compound 34]
- EC50 (M1 muscarinic receptor): > 10 µM
- Emax (M1 muscarinic receptor): < 25%
- EC50 (M4 muscarinic receptor): > 10 µM
- Emax (M4 muscarinic receptor): < 25%

Structure (SMILES): CN1C(=O)CCC2(CCN(C3C[C@@H]4CC[C@@H]3C4)CC2)c2ccccc21 (stereo partly shown) [Compound 35]
- EC50 (M1 muscarinic receptor): > 10 µM
- Emax (M1 muscarinic receptor): < 25%
- EC50 (M4 muscarinic receptor): < 2 µM
- Emax (M4 muscarinic receptor): 25 to 100%

Structure (SMILES): CC(C)(C)CCN1CCC2(CCC(=O)Nc3ccccc32)CC1 [Compound 36, 1′-(3,3-dimethylbutyl)-3,4-dihydrospiro[benzo[b]azepine-5,4′-piperidin]-2(1H)-one]
- EC50 (M1 muscarinic receptor): < 2 µM
- Emax (M1 muscarinic receptor): 25 to 100%
- EC50 (M4 muscarinic receptor): < 2 µM
- Emax (M4 muscarinic receptor): 25 to 100%
